The source of these data is patent publication US10945612B2, “Assessing endothelial function using a blood pressure cuff” (The Regents of the University of California, priority 2014, dated 2021).

One assay deals with brachial artery. The experiment in a line: Cuff-based measurement of vasodilation (pulse amplitude relative to baseline) after sublingual nitroglycerin. In kind it is in vivo, human. How it is done:
Three individuals in the age-range of 28-38 were examined. All subjects had Framingham risk scores of 1% or less, and had no history of cardiovascular disease. Each individual was assessed at least three times before and after RH induced by five minutes of suprasystolic cuff occlusion. At least one additional measurement was made using the same protocol, except without cuff inflation. Sensitivity to a 0.4 mg dose of sublingual NG was assessed three times in two individuals.
Sensitivity to a 0.4 mg dose of sublingual NG was assessed three times in two individuals. In the analysis that follows, all of the datasets are pooled by stimulus. This addresses the question: Can the method measure changes in arterial tone due to vasorelaxatory stimuli and with what sensitivity?
A single quantity relating to the recorded pressure data, the pulse amplitude, was studied and it was posited that this is proportional to the arterial area. During the post stimulus interval, pressure data from the cuff were recorded approximately every 80 seconds, for a period of 30 seconds. During each recording interval, the cuff was inflated to 70 mm Hg, which was always below the measured diastolic pressure of the subject. To quantify the observed response, the mean of the pulse quantity (in this case, amplitude) during the response interval was divided by the mean value of the same quantity during the baseline interval. FIG. 10 illustrates the results.
v) The stimulus is applied. This is either 1-5 min of cuff occlusion to suprasystolic pressure Ps (for studies of endothelial function) or a dose of sublingual NG (for studies of endothelium-independent vasodilation).
(vi) After Tp=45 s have elapsed following cuff release or drug administration, a series of up to Nr=10 repeat measurement intervals ensue. In each interval, the cuff is inflated to Pm for Tm seconds, after which it is deflated for Tw seconds. This large number of repeat measurements (Nr)) is required only when one wishes to record the return of the vessel toward baseline.
[formula] and reported, e.g., to the user. […]

The test system of a further assay is smooth muscle. As to conditions: 400 μg sublingual dose; Feldman et al. (1979), Adams et al. (1998); cited from earlier work.
A further assay has as its system NO synthase. The experiment in a line: Cuff single pulse waveforms after endothelial stimulation with NO synthase blocked by L-NAME. The assay is classed as in vivo, human. The note with it: cuff inflated to 70 mm Hg; NO synthase blocked via L-NAME. The text has this:
Both the amplitude and slope of the rising edge of the pulse increase markedly after endothelial stimulation.
In an artery with intact endothelial function, both pulse height (maximal cross-sectional arterial area) and compliance (maximum slope of the rising edge) increase markedly over baseline. […] FIG. 4 illustrates how a five minute cuff occlusion and the ensuring reactive hyperemia lead to major increases in area change per pulse and the maximum derivative of the area per pulse. Both metrics return to baseline levels after 20 minutes. FIG. 5 confirms the repeatability of the protocol by illustrating the effects of a series of two cuff occlusion periods. We see from FIG. 6 that only a small slow drift in the measured quantities occurs when no reactive hyperemic stimulus is applied.

Entries after “also recorded” stand apart in the source; their conditions may differ.

With `O=[N+]([O-])OCC(CO[N+](=O)[O-])O[N+](=O)[O-]` [NG, nitroglycerin], the cDmax % in the assay on brachial artery (400 μg sublingual NG, maximal vasodilation by the cuff-based method, relative to baseline) is given as 70%. For the same molecule, in the assay with brachial artery (400 μg sublingual NG, ratio to baseline, pooled data sets), the “Mean ± SEM of maximum response over all data sets (dilation response)” value amounted to 1.70 ± 0.036. Besides, the “Mean ± SEM of maximum Response over all data sets (amplitude response)” value with brachial artery (0.4 mg sublingual NG, mean pulse amplitude in response interval divided by baseline, cuff at 70 mm Hg, pooled data sets) is listed as 1.70 ± 0.036. In the assay on smooth muscle, the smooth muscle dilation entry is reported as “maximal smooth muscle dilation”.

As for `COC(=O)[C@@H](N)CCCNC(=N)N[N+](=O)[O-]` [L-NAME], in the assay on NO synthase, the “compliance (maximum slope of the rising edge) increase over baseline after endothelial stimulation” value is listed as “greatly attenuates this response; also recorded: greatly attenuated” and the “pulse height (maximal cross-sectional arterial area) increase over baseline after endothelial stimulation” value is “greatly attenuates this response; also recorded: greatly attenuated”.
